Test results from US11771705B2, “Adjuvant therapy for use in prostate cancer treatment” (priority 2017, dated 2023).
Like-named read-outs stand apart in the source and are kept apart here.

Assays:
[1] = type: in vivo, healthy men
Method: A phase I, double-blind, randomised, placebo-controlled, multiple dose study to evaluate the safety, pharmacokinetics and pharmacodynamics of multiple dosages of estetrol in healthy men.
Male participants aged between 40 and 70 years were allocated to one of the following groups: • Group 1: 20 mg E4 (estetrol) or placebo; • Group 2: 40 mg E4 (estetrol) or placebo; • Group 3: 60 mg E4 (estetrol) or placebo.
A total of 15 subjects were assigned to each dose group: 10 subjects were randomised to receive the active treatment (E4), 5 subjects were randomised to receive placebo treatment. In total […] participated in this study.
Dosing began with Group 1. The other groups were dosed consecutively. Dose escalation to the next E4 dose group proceeded based on reported adverse events (AEs), SHBG levels, lipids and haemostatic parameters. The decision to continue with the next higher E4 dose level was made by the Investigator, an independent expert and the Sponsor.
E4 was supplied as tablets and taken orally every morning between 8:00-10:00 am, for 28 days. The total duration of the study, including screening was 84 days for each subject (Screening from Day −28 till Day −1, Clinical part from Day 1 till Day 56).
There were two primary outcome parameters in this study. First primary parameter was the safety evaluation of E4. Safety variables included vital signs, routine laboratory tests, physical examination, ECG measurement and monitoring of (S)AEs.
Second primary parameter was the hormones related to prostate function. FSH, LH, E2, total testosterone, free testosterone and sex hormone-binding globulin (SHBG) were measured.
Secondary parameters included other pharmacodynamic and pharmacokinetic parameters. The pharmacodynamic parameters which were assessed are the following: • Haemostatic factors: (extrinsic) APC-resistance, prothrombin fragment 1+2, free tissue factor pathway inhibitor (TFPI), antithrombin activity, protein S activity, D-dimer, angiotensinogen; • Lipids and lipoproteins: total cholesterol, triglycerides, HDL-cholesterol, LDL-cholesterol and lipoprotein(a) (Lp(a)); • Carbohydrates: fasting serum glucose; • Bone turnover markers: osteocalcin, type I collagen telopeptide (CTX-1) and parathyroid hormone (PTH); • Prostate-specific antigen (PSA).
Pharmacokinetics were evaluated by measuring E4 trough levels on Day 2, 7, 14 and 28. Furthermore, on Day 28 before and at several time points after dosing E4 concentrations were measured.

[2] = tested on: adenocarcinoma of the prostate; test: Estetrol in prostate cancer patients treated with ADT, randomized placebo controlled (Example 3); type: in vivo, male patients; conditions: GnRH agonist plus 40 mg estetrol per day oral, 24 weeks
From the text: Male patients who have histologically confirmed adenocarcinoma of the prostate and who are qualifying for treatment with androgen deprivation therapy (ADT: GnRH agonist) are included. The study is randomized placebo controlled.
Randomisation takes place after a patient is found to be eligible at the baseline visit. Subjects receive the study medication for a period of 24 weeks in total.
Subjects receive blinded study medication (oral administration) as follows: • Investigational product: GnRH agonist plus 40 mg estetrol (E4) per day; • Placebo: GnRH agonist plus placebo.
Medication should be taken in the morning between 8:00-10:00 AM. All patients concomitantly receive a prophylactic dose of dabigatran (220 mg once daily) or another anticoagulant.
A total of 30 patients is being dosed as follows: 20 patient in the estetrol group and 10 patients in the reference therapy group (placebo).
The primary objective is to assess the additional effects of E4 on total T and free T. Secondary objectives include the assessment of the effects of E4 on SHBG, PSA response and lipids and lipoproteins. […]

[3] = 20 mg or 40 mg daily, cited from earlier work
[4] = type: in vivo, male patients; conditions: average of Day 7 and Day 14
Method: For each group dosed at 2, 10, 20, 40 and 60 mg estetrol daily (oral administration), 7 to 10 male patients were tested for their plasma content in estetrol at Day 7 and at Day 14. For each dose group, the average trough level of all patients across both days was calculated.

[5] = tested on: adenocarcinoma of the prostate; test: Estetrol on testosterone suppression and quality of life in prostate cancer patients treated with ADT (Example 4); type: in vivo, male patients; conditions: GnRH agonist plus 40 mg estetrol monohydrate p.o. per day, 24 weeks
Method: Male patients who have histologically confirmed adenocarcinoma of the prostate and who are qualifying for treatment with androgen deprivation therapy (ADT: GnRH agonist) participate in randomized placebo controlled study. Randomisation takes place after a patient is found to be eligible at the baseline visit. Subjects receive the study medication for a period of 24 weeks in total. Subjects receive blinded study medication: • Investigational product: GnRH agonist plus 40 mg estetrol monohydrate (E4) p.o. per day; • Placebo: GnRH agonist plus placebo. Selection of the GnRH agonist is left to the doctors treating the individual patients. Medication is taken in the morning between 8:00-10:00 AM. A total of 60 patients is dosed as follows: 40 patient in the estetrol group and 20 patients in the reference therapy group (placebo). Effects of medication on total T, free T, SHBG, hot flushes, PSA response, endocrine parameters, adrenal androgens and the lipid profile are assessed. Further assessed are the effects on health related quality of life (using the Functional Assessment of Cancer Therapy Prostate (FACT-P) questionnaire and a small questionnaire on the presence and absence of endocrine related symptoms (Q-man questionnaire)) and effects on bone turnover (bone markers).

[6] = Day 28 vs Day 1, 20, 40, 60 mg daily

## C[C@]12CC[C@@H]3c4ccc(O)cc4CC[C@H]3[C@@H]1[C@@H](O)[C@@H](O)[C@@H]2O [estetrol]
[1]; [6]
  HDL Cholesterol: small increase
  Lowering effect on LDL Cholesterol: about 20%
  TG (triglycerides): no changes
[1]; Day 28 vs Day 1, 20, 40, 60 mg daily (FIG. 1A)
  Free testosterone level: decreased
[1]; Day 28 vs Day 1, 20, 40, 60 mg daily (FIG. 1B)
  Total testosterone level: decreased
[1]; Day 28 vs Day 1, 20, 40, 60 mg daily (FIG. 1C)
  SHBG level: increase
[1]; Day 28 vs Day 1, 20, 40, 60 mg daily (FIG. 1D)
  LH level: not much change
[1]; Day 28 vs Day 1, 20, 40, 60 mg daily (FIG. 1E)
  FSH levels: decreased
[1]; Day 28 vs Day 1, 20, 40, 60 mg daily (FIGS. 2I, 2J)
  Effects on bone (osteocalcin, CTX-1): beneficial estrogenic effects
[1]; daily oral dose of 20 mg, 40 mg or 60 mg for 28 days
  Changes in vital signs, ECG, physical examination and body weight: No clinically relevant changes
[1]; daily oral dose of 20 mg, 40 mg or 60 mg for 28 days, healthy men aged 40-70 years
  Tolerability: well tolerated
[1]; shortly after dosing, only for a few hours
  LH levels after E4 administration: decreased
[2]
  Efficacy and quality of life of ADT treatment for prostate cancer: effective therapy to improve efficacy and quality of life
[3]; both cohorts
  Libido decreased during treatment: 8 of 20
  Nipple tenderness reported: 7 of 20
[3]; healthy men 40-70 years
  Body weight and safety parameters: did not change
  Estradiol level: decreased
  FSH level: decreased
  Free testosterone level: decreased
  LH levels: did not change
  SHBG levels: increased
  Total testosterone level: decreased
[4]; daily oral dose 2 mg
  Trough plasma level: 198 pg/mL
[4]; daily oral dose 10 mg
  Trough plasma level: 1056 pg/mL
[4]; daily oral dose 20 mg
  Trough plasma level: 2187 pg/mL
[4]; daily oral dose 40 mg
  Trough plasma level: 4417 pg/mL
[4]; daily oral dose 60 mg
  Trough plasma level: 6157 pg/mL
[5]
  Efficacy of ADT: improves efficacy of ADT
  Quality of life of the prostate cancer patients: improves quality of life
